Data reported in the supplement of paper PMC11451515.

Legend:
Conditions in all cases: 48 h
SEM cells [1] = experiment: AUC of viability dose-response curve (% viability x log10 dose units); higher = less sensitive
Procedure, shortened: (§1)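 Leukemia cells adapted to each medium were seeded in 1536-well plates (500 or 1000 cells/well). They were dosed with library compounds in DMSO at 11 threefold doses, 47 μM to 0.79 nM, for 48 h at 37°C. CellTiter-Glo One luminescence was normalised per plate to DMSO and cell-free wells. Area under the curve was integrated by trapezoidal rule over log10 doses on a four-parameter log-logistic fit; curves exceeding full viability were scaled and curves failing quality control removed.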

P12-Ichikawa [2] = experiment: as above
Procedure, shortened: as §1

NOMO1 [3] = experiment: as above
Procedure, shortened: as §1

SEM cells [4] = experiment: cell viability relative to DMSO control; higher = less cytotoxic
Procedure, shortened: (§2)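 Library compounds in DMSO were pin-dosed into 1536-well plates (5 μl) holding NOMO1 or SEM (500 cells/well) or P12-Ichikawa (1000 cells/well) leukemia cells, across an 11-point threefold series of 47 μM to 0.79 nM. Each cell line had been adapted for at least four passages in each medium. CellTiter-Glo One luminescence was read after 48 h at 37°C. Viability is the per-plate percentage relative to DMSO wells, with cell-free wells as background.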

P12-Ichikawa [5] = experiment: as above
Procedure, shortened: as §2

NOMO1 [6] = experiment: as above
Procedure, shortened: as §2

N=C(N)c1ccc(OCCCCCOc2ccc(C(=N)N)cc2)cc1
AUC of viability dose-response curve
Conditions	NOMO1 [3]	P12-Ichikawa [2]	SEM cells [1]
HPLM + 10% dialyzed FBS	441	467	457
RPMI 5 mM glucose + 10% FBS	447	456	463
RPMI 5 mM glucose + 10% dialyzed FBS	441	458	465

cell viability [%]
Conditions	NOMO1 [6]	P12-Ichikawa [5]	SEM cells [4]
HPLM + 10% dialyzed FBS, 0.000781 µM	111	101	72.7
HPLM + 10% dialyzed FBS, 0.00234 µM	105	108	115
HPLM + 10% dialyzed FBS, 0.00702 µM	113	108	112
HPLM + 10% dialyzed FBS, 0.0211 µM	121	110	125
HPLM + 10% dialyzed FBS, 0.0632 µM	130	111	123
HPLM + 10% dialyzed FBS, 0.19 µM	133	102	127
HPLM + 10% dialyzed FBS, 0.569 µM	104	101	118
HPLM + 10% dialyzed FBS, 1.71 µM	104	103	122
HPLM + 10% dialyzed FBS, 5.12 µM	110	106	106
HPLM + 10% dialyzed FBS, 15.4 µM	75.8	97.1	101
HPLM + 10% dialyzed FBS, 46.1 µM	46.6	79.5	46.4
RPMI 5 mM glucose + 10% FBS, 0.000781 µM	100	104	–
RPMI 5 mM glucose + 10% FBS, 0.00234 µM	114	109	–
RPMI 5 mM glucose + 10% FBS, 0.00702 µM	113	109	–
RPMI 5 mM glucose + 10% FBS, 0.0211 µM	108	114	–
RPMI 5 mM glucose + 10% FBS, 0.0632 µM	113	116	–
RPMI 5 mM glucose + 10% FBS, 0.19 µM	92.2	111	–
RPMI 5 mM glucose + 10% FBS, 0.569 µM	116	107	–
RPMI 5 mM glucose + 10% FBS, 1.71 µM	107	104	–
RPMI 5 mM glucose + 10% FBS, 5.12 µM	93.6	117	–
RPMI 5 mM glucose + 10% FBS, 15.4 µM	84.8	85.3	–
RPMI 5 mM glucose + 10% FBS, 46.1 µM	47.7	62.8	–
RPMI 5 mM glucose + 10% dialyzed FBS, 0.000781 µM	91.6	101	64.9
RPMI 5 mM glucose + 10% dialyzed FBS, 0.00234 µM	101	115	111
RPMI 5 mM glucose + 10% dialyzed FBS, 0.00702 µM	121	123	146
RPMI 5 mM glucose + 10% dialyzed FBS, 0.0211 µM	115	125	138
RPMI 5 mM glucose + 10% dialyzed FBS, 0.0632 µM	114	118	121
RPMI 5 mM glucose + 10% dialyzed FBS, 0.19 µM	107	114	118
RPMI 5 mM glucose + 10% dialyzed FBS, 0.569 µM	108	118	105
RPMI 5 mM glucose + 10% dialyzed FBS, 1.71 µM	98.6	108	103
RPMI 5 mM glucose + 10% dialyzed FBS, 5.12 µM	98.3	107	113
RPMI 5 mM glucose + 10% dialyzed FBS, 15.4 µM	70.6	102	120
RPMI 5 mM glucose + 10% dialyzed FBS, 46.1 µM	49.2	81.5	57.8

N/C(=N\C(=O)c1nc(Cl)c(N)nc1N)NCc1ccccc1
AUC of viability dose-response curve
Conditions	NOMO1 [3]	P12-Ichikawa [2]	SEM cells [1]
HPLM + 10% dialyzed FBS	448	465	449
RPMI 5 mM glucose + 10% FBS	405	449	407
RPMI 5 mM glucose + 10% dialyzed FBS	447	436	436

cell viability [%]
Conditions	NOMO1 [6]	P12-Ichikawa [5]	SEM cells [4]
HPLM + 10% dialyzed FBS, 0.000781 µM	81	101	74.5
HPLM + 10% dialyzed FBS, 0.00234 µM	99.5	106	91.8
HPLM + 10% dialyzed FBS, 0.00702 µM	90.7	105	92.9
HPLM + 10% dialyzed FBS, 0.0211 µM	118	103	106
HPLM + 10% dialyzed FBS, 0.0632 µM	108	108	91.3
HPLM + 10% dialyzed FBS, 0.19 µM	108	105	94.6
HPLM + 10% dialyzed FBS, 0.569 µM	109	108	113
HPLM + 10% dialyzed FBS, 1.71 µM	109	108	102
HPLM + 10% dialyzed FBS, 5.12 µM	97.6	101	98.8
HPLM + 10% dialyzed FBS, 15.4 µM	76.2	98.7	85
HPLM + 10% dialyzed FBS, 46.1 µM	36.9	70.9	77.2
RPMI 5 mM glucose + 10% FBS, 0.000781 µM	80.5	84.9	76.4
RPMI 5 mM glucose + 10% FBS, 0.00234 µM	92.8	96.9	91.1
RPMI 5 mM glucose + 10% FBS, 0.00702 µM	83.7	83.3	95.2
RPMI 5 mM glucose + 10% FBS, 0.0211 µM	88.3	92.1	94.3
RPMI 5 mM glucose + 10% FBS, 0.0632 µM	93.5	99	83.8
RPMI 5 mM glucose + 10% FBS, 0.19 µM	89	103	96.5
RPMI 5 mM glucose + 10% FBS, 0.569 µM	99	106	84.3
RPMI 5 mM glucose + 10% FBS, 1.71 µM	87.8	95.1	97.3
RPMI 5 mM glucose + 10% FBS, 5.12 µM	92.8	107	94.6
RPMI 5 mM glucose + 10% FBS, 15.4 µM	72.4	96.5	62.3
RPMI 5 mM glucose + 10% FBS, 46.1 µM	28.5	58.4	43.5
RPMI 5 mM glucose + 10% dialyzed FBS, 0.000781 µM	83.1	82.5	91
RPMI 5 mM glucose + 10% dialyzed FBS, 0.00234 µM	97	94.1	103
RPMI 5 mM glucose + 10% dialyzed FBS, 0.00702 µM	96.2	94.1	94
RPMI 5 mM glucose + 10% dialyzed FBS, 0.0211 µM	90.8	88.2	102
RPMI 5 mM glucose + 10% dialyzed FBS, 0.0632 µM	104	94.4	81.6
RPMI 5 mM glucose + 10% dialyzed FBS, 0.19 µM	100	101	99.8
RPMI 5 mM glucose + 10% dialyzed FBS, 0.569 µM	107	103	94.2
RPMI 5 mM glucose + 10% dialyzed FBS, 1.71 µM	111	106	99.5
RPMI 5 mM glucose + 10% dialyzed FBS, 5.12 µM	87.4	98.2	90.8
RPMI 5 mM glucose + 10% dialyzed FBS, 15.4 µM	84.2	76.1	76.2
RPMI 5 mM glucose + 10% dialyzed FBS, 46.1 µM	49.1	51.4	59.7
